In paper PMC7559125 (Pathogens, 2020):
pEC50, pIC50: −log10 of the molar value.

How the values were obtained:
[1] = test system: A/Sakai/23/2013 (wild-type); assay: microbe, parasite or virus in culture; conditions: Influenza A virus, AX4
[2] = test system: A/Yokohama/59/2016 (wild-type); assay: microbe, parasite or virus in culture; conditions: Influenza A virus, AX4
[3] = test system: A/Yokohama/40/2016 (wild-type); assay: microbe, parasite or virus in culture; conditions: Influenza A virus, AX4
[4] = target: neuraminidase of A/Yokohama/59/2016 (wild-type) (Influenza A virus, UniProt A0A0X9QTS2)
[5] = target: neuraminidase of A/Sakai/23/2013 (wild-type) (Influenza A virus, UniProt W8DXJ8)
[6] = target: neuraminidase of A/Yokohama/40/2016 (wild-type) (Influenza A virus, UniProt A0A0X9QTS2)
[7] = test system: A/Sakai/23/2013 (wild-type); assay: microbe, parasite or virus in culture; conditions: Influenza A virus
[8] = test system: A/Yokohama/59/2016 (wild-type); assay: microbe, parasite or virus in culture; conditions: Influenza A virus
[9] = test system: A/Yokohama/40/2016 (wild-type); assay: microbe, parasite or virus in culture; conditions: Influenza A virus

Compound `NC(=O)c1nc(F)c[nH]c1=O` [Favipiravir, favipiravir] has a pEC50 [1] of 5.18, a pEC50 [2] of 5.06 and a pEC50 [3] of 5.00.

`CCC(CC)[C@H](NC(C)=O)[C@@H]1[C@H](O)[C@@H](C(=O)O)C[C@H]1N=C(N)N.O.O.O` [Peramivir, peramivir trihydrate] was tested, and the pIC50 [4] was 10.10, the pIC50 [5] was 11.00 and the pIC50 [6] was 10.15.

`O=C1c2c(O)c(=O)ccn2N([C@@H]2c3ccccc3SCc3c2ccc(F)c3F)[C@@H]2COCCN12` [Baloxavir, Baloxavir acid] was tested, and the pIC50 [7] was 8.39, the pIC50 [8] was 7.96 and the pIC50 [9] was 8.21.
